According to article PMC8804275 (IBRO Neuroscience Reports, 2022):
pEC50: −log10 of the molar value.

Experiments:
hCB1R [1] = target: T1, hCB1R (Homo sapiens, UniProt P21554); experiment: HitHunter cAMP assay, inhibition of forskolin-stimulated cAMP; type: cell-based; settings: 10 µM FSK, 90 min, 37 °C; agonism mode without CP55,940; allosteric ago-PAM
hCB1R [2] = target: T1, hCB1R; experiment: PathHunter βarrestin2 recruitment assay; type: cell-based; settings: 90 min, 37 °C; agonism mode without CP55,940; allosteric ago-PAM

T1 sequence (P21554 whole entry): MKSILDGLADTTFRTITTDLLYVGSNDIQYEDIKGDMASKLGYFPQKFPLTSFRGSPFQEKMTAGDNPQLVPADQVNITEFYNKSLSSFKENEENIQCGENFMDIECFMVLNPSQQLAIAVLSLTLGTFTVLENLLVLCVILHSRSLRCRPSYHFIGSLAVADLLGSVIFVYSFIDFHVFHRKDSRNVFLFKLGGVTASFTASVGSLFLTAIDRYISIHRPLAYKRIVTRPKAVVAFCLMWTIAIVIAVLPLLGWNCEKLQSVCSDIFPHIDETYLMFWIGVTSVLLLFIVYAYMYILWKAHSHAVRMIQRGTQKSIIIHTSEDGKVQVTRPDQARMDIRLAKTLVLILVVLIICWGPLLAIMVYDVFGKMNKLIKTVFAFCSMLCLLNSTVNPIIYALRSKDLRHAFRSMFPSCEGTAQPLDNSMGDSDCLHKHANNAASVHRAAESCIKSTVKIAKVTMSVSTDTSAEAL

Compound	pEC50 (hCB1R [1])	pEC50 (hCB1R [2])
O=[N+]([O-])CC(c1ccccc1F)c1c(-c2cccc(F)c2)[nH]c2c(F)cccc12 (stereo not shown) [GAT593]	7.35	< 5.00
GAT591	8.39	5.89
